Data on five molecules can be found in patent publication US20190060239A1, “Technology for the Preparation of Microparticles” (Ansun Biopharma, Inc., priority 2007, published 2019).

The conditions of series [1]: cited from earlier work.
The nature of series [2]: Microsphere quality score by light microscopy (scoring system of Table 13). The class given is physicochemical. As to conditions: for Microsphere Quality: compound 2 mg/ml. As to the method: For each of the compounds listed in A-D above, and for DAS181, cocktail solutions containing 2 mg/ml of compound dissolved in an aqueous solvent and various counterions, antisolvents and pH, as listed below, were prepared in a 96-well microtiter plate (0.1 ml cocktail/well) at room temperature. Control solutions contained either solvent or antisolvent alone, with or without the counterion. Cocktails were cooled by placing in a freezer. The chilled plates were transferred onto pre-chilled (−45° C.) shelves of a Millrock Lab Series Lyophilizer, and the vacuum was applied. The frozen cocktail solutions were allowed to lyophilize for 16 hours.
The lyophilized powders from the bottoms of the wells were transferred onto glass slides and analyzed by light microscopy for appearance. The quality of the product microspheres was scored based on the uniformity of the microspheres, the absence of undesirable non-microsphere particles (glass-like crystalline forms), and the absence of aggregates.
Arginine was used as counterion and isopropanol was used as antisolvent. Concentrations of each of the cocktail components—the compound, the counterion and the antisolvent—were varied as shown below in Table 15, and the effect on microsphere quality assessed.
Experiments were performed to evaluate the effect of antisolvent and counterion concentration variation on the formation of microspheres. The peptides leuprolide and somatostatin, and the antibiotics vancomycin and tobramycin, were tested under a variety of conditions for forming microspheres. Samples were analyzed in 96-well plates as described in the previous Examples.
The experiments were performed using PGI2 and an analog of PGI2, Ciprostene, at a concentration of 2 mg/ml. Cocktail solutions were mixed at room temperature, then cooled by placing in a freezer. The chilled plates were transferred onto pre-chilled (−45° C.) shelves of a Millrock Lab Series Lyophilizer, and the vacuum was applied. The frozen cocktail solutions were allowed to lyophilize for 16 hours.
Because the resulting prostaglandin microspheres are hygroscopic, upon microsphere initiation, the humidity was maintained at low levels during the experiments, using a nitrogen gas tank attached to the backfill system on the lyophilizer. Each of the reaction tubes was flushed with N2. In addition, the backfill valve on the lyophilizer was left open to continually flush a low humidity atmosphere over the samples. The microscope used to visualize the resulting microspheres was contained within a plastic bag that was continually purged with dry N2. Sample tubes were placed under the bag to equilibrate for approximately 30 seconds, before opening and spreading onto the glass slide.
The compound/counterion/antisolvent conditions were as follows:
Experiments were performed with 200 μl of each of the above cocktail solutions in a 2 ml lyophilization bottle (first flash freeze condition), and 25 μl of each of the above cocktail solutions in a PCR tube (second flash freeze condition). The samples in the lyophilization bottles took approximately 15 seconds to freeze. The samples in the PCR tubes took approximately 3 seconds or less to freeze.
The cocktails in the 96-well plates were cooled by placing in a freezer. The chilled plates were transferred onto pre-chilled (−45° C.) shelves of a Millrock Lab Series Lyophilizer, and a vacuum was applied. The frozen cocktail solutions were allowed to lyophilize for 16 hours.
The lyophilized powders from the bottoms of the wells were transferred onto glass slides and analyzed by light microscopy for appearance.

Series [3] in a line: Microsphere formation, size and appearance by light microscopy. The class given is physicochemical.
For series [4] the following is noted: Bombuwala et. al., Beilstein J. Org. Chem. 2006, 2:13; cited from earlier work.
The nature of series [5]: Cascade Impaction of vancomycin microspheres, New Generation Impactor. The class given is physicochemical. On the procedure: Vancomycin was dissolved in aqueous buffer at a final concentration of 10 mg/ml. The cocktail contained 5 mM sodium citrate pH 5.0 as counterion and 15% v/v n-propanol as anti-solvent. A 2 ml aliquot of cocktail was frozen in a 10-ml lyophilization vial placed in a −80° C. freezer for 1 hour. The frozen vial was transferred onto a −45° C. lyophilizer shelf and freeze dried for 36 hours.
The microspheres prepared as described in Example 5 were tested by Cascade Impaction using a New Generation Impactor. The deposition of pharmaceuticals in the respiratory tract can be predicted by the aerodynamic behavior of particles (microspheres) on the stages/collection plates of the cascade impactor.
The microspheres (10 mg) were loaded into HPMC (hydroxypropyl methylcellulose) capsule. The capsule was placed into a CycloHaler (PharmaChemie) dry powder inhaler and subjected to cascade impaction. The collection plates of the impactor representing various areas/stages of deposition post-inhalation (trachea, primary and secondary bronchi, terminal bronchi, alveoli, etc.) were coated with silicon spray to prevent bouncing of the microspheres. The microspheres from the stages and collection plates were recovered into a phosphate buffered saline containing 0.1% Tween, and the amount of deposited vancomycin recovered from each stage and collection plate was quantified by measuring absorbance at 280 nm.

For the molecule `CCCCC[C@H](O)/C=C/[C@H]1[C@H](O)C[C@]2(C)C/C(=C\CCCC(=O)O)C[C@H]12` [Ciprostene], the “solubility in water / aqueous solutions” value in series [1] is reported as “not highly soluble in aqueous solutions”. Further, the “Microsphere Quality” value in series [2] (2 mM Arginine, pH 9, 20% n-propanol, 0% t-butanol) is given as 7/8; in series [2] (2 mM Arginine, pH 9, 20% n-propanol, 30% t-butanol), 6/7; in series [2] (2 mM PEI, pH 10.75, 30% n-propanol, 0% t-butanol) it was 6/7; in series [2] (2 mM TEA, pH 11, 20% n-propanol, 0% t-butanol), 4/5; in series [2] (2 mM TEA, pH 11, 20% n-propanol, 5% t-butanol), 8/7; in series [2] (2 mM TEA, pH 11, 20% n-propanol, 55% t-butanol), 6/7. The “Microsphere Quality” value in series [2] (2 mM TEA, pH 11, 20% n-propanol, 70% t-butanol) is 5/6; in series [2] (2 mM TEA, pH 11, 30% n-propanol, 0% t-butanol), 3/4.
For `CCCCC[C@H](O)/C=C/[C@@H]1[C@H]2C/C(=C/CCCC(=O)O)O[C@H]2C[C@H]1O` [PGI2], in series [1] (at physiological pH), the API half life entry is “on the order of minutes”. In addition, the “solubility in water / aqueous solutions” value in series [1] is recorded as “higher solubility in water”.
Regarding `CC(=O)O[C@H]1C(=O)[C@@]2(C)[C@H]([C@H](OC(=O)c3ccccc3)[C@]3(O)C[C@H](OC(=O)[C@H](O)[C@@H](NC(=O)c4ccccc4)c4ccccc4)C(C)=C1C3(C)C)[C@]1(OC(C)=O)CO[C@@H]1C[C@@H]2O` [Paclitaxel], the “organic solvent concentration at which paclitaxel precipitated” value in series [3] (2 mg/ml paclitaxel, isopropanol, t-butanol or DMSO with 2 mM Na-citrate buffer pH 5.0) is recorded as no more than 25%. The “log P (log of the octanol/water partition coefficient)” value in series [4] is on record as “higher than 3”. Further, in series [2] (both flash freeze conditions, Paclitaxel/citrate pH 5.0/90% t-butanol), the “appearance after flash freeze” value is “mostly crystalline”.
Turning to `CN[C@H](CC(C)C)C(=O)N[C@H]1C(=O)N[C@@H](CC(N)=O)C(=O)N[C@H]2C(=O)N[C@H]3C(=O)N[C@H](C(=O)N[C@H](C(=O)O)c4cc(O)cc(O)c4-c4cc3ccc4O)[C@H](O)c3ccc(c(Cl)c3)Oc3cc2cc(c3O[C@@H]2O[C@H](CO)[C@@H](O)[C@H](O)[C@H]2O[C@H]2C[C@](C)(N)[C@H](O)[C@H](C)O2)Oc2ccc(cc2Cl)[C@H]1O` [Vancomycin], the “geometric size of microspheres” value in series [3] (10 mg/ml vancomycin, 5 mM sodium citrate pH 5.0, 15% v/v n-propanol, light microscopy) is listed as 1.0-3.0 microns. Also, the “Percent Deposition of Vancomycin” value in series [5] (Capsule + device, size cut-off NA) is 37.57%; in series [5] (Throat, size cut-off >10 microns, oral cavity), 10.48%; in series [5] (impactor component 1, size cut-off >8.06 microns, Oral cavity/pharynx) it was 3.33%; in series [5] (impactor component 2, size cut-off 4.46-8.06 microns, pharynx) it was 7.71%; in series [5] (impactor component 3, size cut-off 2.82-4.46 microns, trachea/bronchi) it was 15.47%; in series [5] (impactor component 4, size cut-off 1.66-2.82 microns, secondary bronchi), 16.69%. The “Percent Deposition of Vancomycin” value was 6.38% in series [5] (impactor component 5, size cut-off 0.94-1.66 microns, terminal bronchi/alveoli); 1.59% in series [5] (impactor component 6, size cut-off 0.55-0.94 microns, alveoli); 0.51% in series [5] (impactor component 7, size cut-off 0.34-0.55 microns, alveoli); 0.27% in series [5] (impactor component 8, size cut-off <0.34 microns, alveoli). In addition, the “Microsphere Quality” value is recorded as 9/8 in series [2] (Na-citrate, pH 5.0 7.5 mM, Isopropanol 5%) and 9/8 in series [2] (Na-citrate, pH 5.0 […], Isopropanol 5%). In series [2] (pH 5), the microsphere rating is given as 9/10.

B1: PIN 168 (PI8): hexahistidine-tagged human proteinase inhibitor 8 (SEQ ID NO:15) (protein, listed as Homo sapiens)
chain: MDDLCEANGTFAISLFKILGEEDNSRNVFFSPMSISSALAMVFMGAKGSTAAQMSQALCLYKDGDIHRGFQSLLSEVNRTGTQYLLRTANRLFGEKTCDFLPDFKEYCQKFYQAELEELSFAEDTEECRKHINDWVAEKTEGKISEVLDAGTVDPLTKLVLVNAIYFKGKWNEQFDRKYTRGMLFKTNEEKKTVQMMFKEAKFKMGYADEVHTQVLELPYVEEELSMVILLPDDNTDLAVVEKALTYEKFKAWTNSEKLTKSKVQVFLPRLKLEESYDLEPFLRRLGMIDAFDEAKADFSGMSTEKNVPLSKVAHKCFVEVNEEGTEAAAATAVVRNSRCSRMEPRFCADHPFLFFIRRHKTNCILFCGRFSSP
modifications: hexahistidine tag; protease inhibitor 8 (PI8) (Serpin B8)
On to B1, for which the “Microsphere Size (microns)” value in series [3] (5 mg/ml protein, 5 mM citrate, pH 5.0, 7% isopropanol) is 2-5 microns.
